Measurements taken from patent US6541492B1, “Thiazole derivatives as PPAR gamma ligands” (SmithKline Beecham Corporation, priority 1999, dated 2003).

Experiments:
[1] = test system: C3H10T1/2 clone 8 murine fibroblasts; assay: Osteoblast differentiation assay (alkaline phosphatase activity); format: cell-based
Protocol: C3H10T1/2 clone 8 murine fibroblasts (American Type Culture Collection) below passage 22 were maintained in Dulbecco's modified Eagle's medium (Life Technologies, Inc.) supplemented with 10% fetal calf serum and 100 units/mL penicillin G and 100 microgram/mL streptomycin. One day after passage into 96-well microtiter plates (12.5×10^3 cells/cm^2), the cells were treated with 625 nanomolar all-trans retinoic acid, 1 micromolar rosiglitazone and 1 micromolar insulin (Sigma, St. Louis, Mo.). Vehicle or test compounds, which had been solublized to 10 mM in DMSO and then serially diluted from 2e-5 M to 4e-8 M into medium, were added. After 7 days, alkaline phosphatase activity, a surrogate measure for osteogenesis, was determined using Sigma-Fast pNPP substrate (N-2770) according to the manufacturer's specifications (Sigma, St. Louis, Mo.) (see Paulik, M. A. and Lenhard, J. M., Cell Tissue Res., (1997), Vol. 290, pp 79-87). The substrate (50 microliters/well) was incubated with the cells at 37° C. for 10 min and the absorbance read at 405 nm. The % maximum stimulation of alkaline phosphatase activity was calculated relative to cells treated with 10 micromolar all-trans retinoic acid.

C57BL/KsJ db/db mice = assay: In vivo assay in db/db mice; conditions: male db/db mice, 50 mg/kg oral once daily, mean ± standard error
Protocol: Age and weight matched male C57BL/KsJ db/db mice (Jackson Labs, Bar Harbor, Me.) were housed 5 animals/cage at 72° F. and 50% relative humidity with a 12 h light and dark cycle, and fed chow diet (NIH R&M/Auto 6F-Ovals 5K67, PMI Feeds® Inc., Richmond, Ind.). Animals starting at 6 weeks of age were orally gavaged once daily (8:00-9:00 AM) with TPGS/PG (25/75) or 50 mg/kg the compound of Example 4 in TPGS/PG (25/75). After 2 weeks of dosing, the animals were anesthetized with isofluorane, blood was drawn by cardiac puncture, and non-fasting measurements of glucose, insulin, and glycosylated hemoglobin (GHB) were obtained. Blood glucose was determined using an automated chemistry analyzer (Technicon Axon). GHB measurements were performed using a Columnmate Analyzer (Helena Instrument). Insulin concentrations in serum were measured by chemiluminescence using an Origen Analyzer (Igen Inc.). Body weights were recorded at the beginning and end of the study. All data was calculated as the mean and standard error from experiments performed on ≧9 animals per treatment group.

% Stimulation ([1]; % maximum stimulation of alkaline phosphatase activity relative to cells treated with 10 micromolar all-trans retinoic acid): 71%
pEC50 ([1]; alkaline phosphatase activity after 7 days, with 625 nanomolar all-trans retinoic acid, 1 micromolar rosiglitazone, 1 micromolar insulin): 5.7
Structure (SMILES): CCCCCC[C@@H]1S[C@@H](CC(=O)N(CCCC)CCCC)C(=O)N1CCCCc1ccc(C(=O)O)cc1 (relative stereo) [Example 4, (2S*,5S*)-4-(4-(4-Carboxyphenyl)butyl)-2-hexyl-4-oxo-5-thiazolidine N,N-Dibutylacetamide]
GBH (C57BL/KsJ db/db mice; glycosylated hemoglobin, 2 weeks): 6.6 ± 0.3%
Glucose (C57BL/KsJ db/db mice; 2 weeks, non-fasting blood): 380 ± 30 mg/dL
Body Weight Change (C57BL/KsJ db/db mice; beginning to end of 2 week study): 1.1 ± 0.5 g
